Each structure is given as a SMILES string.

The series is described as follows: Surface resistance measurement with high resistance meter. The series is classed as physicochemical. The settings on record: 0.7 g (in terms of anhydride) applied. The procedure:
Surface resistance measurements were performed on compound 1 that had not undergone emulsification adjustment and on glycerin and the emulsification composition that had already undergone emulsification adjustment. In the comparison of compound 1 that had not undergone emulsification adjustment and glycerin, 0.7 g (content in terms of anhydride) of each of the compound 1 and glycerin was applied to an artificial leather made of polyurethane, followed by using a high resistance meter (Stack TR-2 by Tokyo Electronics Co., Ltd.) to measure a surface resistance value. Further, in the comparison by the emulsified composition, 0.05 g of the emulsification compositions shown in Table 11 were each applied to an artificial leather made of polyurethane to measure a surface resistance value using a high resistance meter.
Further, 0.7 g (content in terms of anhydride) of sodium lactate was applied to an artificial leather made of polyurethane before drying the same to volatilize water. As the result, the coating surface was turned into a solid state whose surface resistance value, measured in a similar manner as above, turned out to be 2×10^8Ω; confirmed were a non-volatility of the compound 1 (lower than 1×10^8Ω) and an effect of liquidity at 25° C. (capability of evenly coating a coating object).

`OCC(O)CO` [glycerin]: the surface resistance value (not emulsified, liquid state at measurement) is recorded as 5×10^8 Ω.
Turning to `CC(O)C(=O)[O-].[Na+]` (centres unmarked) [sodium lactate], the surface resistance value (dried to volatilize water, solid state) was 2×10^8 Ω.

(Values after US12441959B2, “Composition containing organic ammonium salt” (MIYOSHI OIL & FAT CO., LTD., priority 2019, dated 2025).)
